Patent publication US9216968B2, “Heterocyclic derivative and pharmaceutical drug” (NIPPON SHINYAKU CO., LTD., priority 2011, dated 2015)
Structures can show the parent of a compound that is named as a salt.

Key:
[1] = biological target: human mPGES-1 (Homo sapiens (Human), UniProt O14684); assay: mPGES-1 inhibiting activity (microsome fractions, PGE2 by HTRF); assay type: biochemical; conditions: microsomes from CHO-K1 cells transfected with human mPGES-1; PGH2 1 μM, 4° C., 60 seconds; read-out: mPGES-1 Inhibition IC50
human mPGES-1, sequence (O14684 whole entry): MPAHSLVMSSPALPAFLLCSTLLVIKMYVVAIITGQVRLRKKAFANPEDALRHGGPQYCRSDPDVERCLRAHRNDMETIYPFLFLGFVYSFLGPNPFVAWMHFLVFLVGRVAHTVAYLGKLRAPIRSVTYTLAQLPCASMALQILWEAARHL
Method in brief: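 PGE2 formation read by HTRF after 60 s at 4 °C with 1 μM PGH2 substrate, following 20 min compound preincubation (1% DMSO) with human mPGES-1 microsomes from transfected CHO-K1 cells. Buffer: potassium phosphate, reduced glutathione, pH 7.4; IC50 from activity relative to enzyme-free blank.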

[2] = test system: A549 cells; assay: Inhibition of PGE2 production in A549 cell (IL-1β stimulated); assay type: cell-based, human; conditions: IL-1β 5 ng/well, PGE2 in culture medium
Method in brief: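 After IL-1β (5 ng/well) stimulation for 24 h at 37 °C, following a 60-min compound pretreatment in RPMI with 3% FBS, medium PGE2 (HTRF) and PGF2α (EIA) from human A549 cells were quantified. 100% activity set as IL-1β-induced minus basal production; IC50 calculated.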

Compound	IC50 [1]	IC50 ([2]; Homo sapiens, A549, 24 h)	IC50 ([2]; 24 hours, hydrochloride)
Cc1c(Cl)cccc1NC(=O)c1cc(NC(=O)c2ccccc2C(F)(F)F)cc2[nH]c(NC3CCCC3)nc12 [Example 141, N-(3-Chloro-2-methylphenyl)-2-(cyclopentylamino)-6-({[2-(trifluoromethyl)phenyl]carbonyl}amino)-1H-benzimidazole-4-carboxamide hydrochloride]	0.4 nM	36.5 nM	
Cc1c(Cl)cccc1NC(=O)c1cc(NC(=O)c2c(F)cccc2Cl)cc2[nH]c(NC[C@H]3CCCO3)nc12 [Example 199, 6-{[(2-Chloro-6-fluorophenyl)-carbonyl]amino}-N-(3-chloro-2-methylphenyl)-2-{[(2R)-tetrahydrofuran-2-ylmethyl]amino}-1H-benzimidazole-4-carboxamide hydrochloride]	9.7 nM	43.2 nM	
Cc1c(Cl)cccc1NC(=O)c1cc(NC(=O)c2ccccc2C(F)(F)F)cc2[nH]c(C3CC3)nc12 [Example 83, N-(3-Chloro-2-methylphenyl)-2-cyclopropyl-6-({[2-(trifluoromethyl)phenyl]carbonyl}amino)-1H-benzimidazole-4-carboxamide hydrochloride]	9.8 nM	16.5 nM	
Cc1c(Cl)cccc1NC(=O)c1cc(NC(=O)c2ccccc2C(F)(F)F)cc2[nH]c(C3CCCO3)nc12 (stereo in doubt) [Example 66, N-(3-Chloro-2-methylphenyl)-2-[(2S)-tetrahydrofuran-2-yl]-6-({[2-(trifluoromethyl)phenyl]carbonyl}amino)-1H-benzimidazole-4-carboxamide hydrochloride]	9.9 nM		57.3 nM
COCc1nc2c(C(=O)Nc3cccc(Cl)c3C)cc(NC(=O)c3cc(CCC4CC4)ccc3Cl)cc2[nH]1 [Example 122, 6-({[2-Chloro-5-(2-cyclopropylethyl)phenyl]carbonyl}amino)-N-(3-chloro-2-methylphenyl)-2-(methoxymethyl)-1H-benzimidazole-4-carboxamide]	9.7 nM	> 1000 nM	
Cc1c(Cl)cccc1NC(=O)c1cc(NC(=O)c2ccccc2C(F)(F)F)cc2[nH]c([C@H]3CCC(=O)N3)nc12 [Example 131, N-(3-Chloro-2-methylphenyl)-2-[(2R)-5-oxopyrrolidin-2-yl]-6-({[2-(trifluoromethyl)phenyl]carbonyl}amino)-1H-benzimidazole-4-carboxamide hydrochloride]	32.8 nM	> 10000 nM	
COCc1nc2c(C(=O)NCc3cccc(Cl)c3C)cc(NC(=O)c3ccccc3C(F)(F)F)cc2[nH]1 [Example 39, N-(3-Chloro-2-methylbenzyl)-2-(methoxymethyl)-6-({[2-(trifluoromethyl)phenyl]carbonyl}amino)-1H-benzimidazole-4-carboxamide hydrochloride]	10.4 nM	237 nM	
CCN(CC)CCNc1nc2c(C(=O)Nc3cccc(Cl)c3C)cc(NC(=O)c3ccccc3C(F)(F)F)cc2[nH]1 [Example 151, N-(3-Chloro-2-methylphenyl)-2-{[2-(diethylamino)ethyl]amino}-6-({[2-(trifluoromethyl)phenyl]carbonyl}amino)-1H-benzimidazole-4-carboxamide hydrochloride]	11.6 nM	328 nM	
CC(C)Cc1nc2c(C(=O)NCc3ccccc3C(F)(F)F)cc(NC(=O)c3ccccc3C(F)(F)F)cc2[nH]1 [Example 60, 2-(2-Methylpropyl)-N-[2-(trifluoromethyl)benzyl]-6-({[2-(trifluoromethyl)phenyl]carbonyl}amino)-1H-benzimidazole-4-carboxamide hydrochloride]	19.8 nM	8 nM	
Cc1c(Cl)cccc1NC(=O)c1cc(NC(=O)c2c(F)cccc2Cl)cc2[nH]c(NCCOC(C)C)nc12 [Example 194, 6-{[(2-Chloro-6-fluorophenyl)carbonyl]amino}-N-(3-chloro-2-methylphenyl)-2-{[2-(propan-2-yloxy)ethyl]amino}-1H-benzimidazole-4-carboxamide hydrochloride]	0.4 nM	33.8 nM	
